Measured values: the NIST ThermoML archive (doi:10.1021/je300652k)

Settings: Liquid, Pulse-echo method

FC(F)(F)C1(F)OC1(F)F (configuration not stated) [2,2,3-trifluoro-3-(trifluoromethyl)oxirane]
Settings | speed of sound [m/s]
253.15 K, 2510 kPa | 571.2
253.15 K, 10040 kPa | 623.9
253.15 K, 25020 kPa | 708
253.15 K, 50030 kPa | 816.7
253.15 K, 75010 kPa | 903.6
253.15 K, 100040 kPa | 977.8
253.15 K, 125040 kPa | 1043.1
253.15 K, 150010 kPa | 1101.9
253.15 K, 175030 kPa | 1155.8
253.15 K, 200030 kPa | 1205.6
253.15 K, 250060 kPa | 1295.5
253.15 K, 300100 kPa | 1376.5
253.15 K, 350000 kPa | 1449.2
253.15 K, 400120 kPa | 1516.7
283.15 K, 2500 kPa | 449.4
283.15 K, 9990 kPa | 517.5
283.15 K, 25000 kPa | 617.4
283.15 K, 49990 kPa | 737.8
283.15 K, 74990 kPa | 831.4
283.15 K, 100050 kPa | 910
283.15 K, 125050 kPa | 978.4
283.15 K, 150010 kPa | 1039.3
283.15 K, 175090 kPa | 1095.2
283.15 K, 200080 kPa | 1146.8
283.15 K, 250010 kPa | 1239.4
283.15 K, 300020 kPa | 1321.5
283.15 K, 350020 kPa | 1396.5
283.15 K, 400120 kPa | 1465.2
313.15 K, 2500 kPa | 326.6
313.15 K, 10010 kPa | 420.6
313.15 K, 25030 kPa | 538.8
313.15 K, 50010 kPa | 670.9
313.15 K, 75040 kPa | 769.9
313.15 K, 100050 kPa | 852
313.15 K, 125040 kPa | 922.8
313.15 K, 150070 kPa | 986.2
313.15 K, 175020 kPa | 1043.4
313.15 K, 200020 kPa | 1095.8
313.15 K, 250020 kPa | 1190.7
313.15 K, 300010 kPa | 1274.7
313.15 K, 350030 kPa | 1350.5
313.15 K, 400060 kPa | 1420.2
343.15 K, 10040 kPa | 332.6
343.15 K, 25050 kPa | 471.3
343.15 K, 50030 kPa | 614.1
343.15 K, 75030 kPa | 718
343.15 K, 100050 kPa | 803
343.15 K, 125030 kPa | 875.8
343.15 K, 150030 kPa | 940.5
343.15 K, 175010 kPa | 999.1
343.15 K, 200060 kPa | 1052.9
343.15 K, 250050 kPa | 1149.1
343.15 K, 299960 kPa | 1234.4
343.15 K, 350090 kPa | 1311.5
343.15 K, 400040 kPa | 1382.2
373.15 K, 10010 kPa | 255
373.15 K, 24970 kPa | 413.4
373.15 K, 50060 kPa | 565.5
373.15 K, 75000 kPa | 673
373.15 K, 100040 kPa | 760
373.15 K, 125040 kPa | 834.6
373.15 K, 150040 kPa | 900.3
373.15 K, 175000 kPa | 959.8
373.15 K, 200070 kPa | 1014.2
373.15 K, 249990 kPa | 1111.6
373.15 K, 300030 kPa | 1198
373.15 K, 350040 kPa | 1275.4
373.15 K, 400010 kPa | 1346.4
403.15 K, 20010 kPa | 322.5
403.15 K, 25020 kPa | 367.5
403.15 K, 50020 kPa | 525.9
403.15 K, 75050 kPa | 636.7
403.15 K, 100040 kPa | 725.7
403.15 K, 125010 kPa | 801.5
403.15 K, 150040 kPa | 868.4
403.15 K, 175040 kPa | 928.7
403.15 K, 200050 kPa | 983.8
403.15 K, 250040 kPa | 1082.6
403.15 K, 299980 kPa | 1169.6
403.15 K, 350040 kPa | 1247.9
403.15 K, 399990 kPa | 1319.9

FC(F)=C(F)C(F)(F)F [hexafluoropropene]
Settings | speed of sound [m/s]
253.27 K, 1150 kPa | 575.6
253.27 K, 10940 kPa | 645.3
253.27 K, 25910 kPa | 728.8
253.27 K, 52820 kPa | 844.3
253.27 K, 75030 kPa | 921.1
253.27 K, 100630 kPa | 997.3
253.27 K, 125810 kPa | 1063
253.27 K, 151420 kPa | 1123.6
253.27 K, 174830 kPa | 1174.3
253.27 K, 200450 kPa | 1224.7
253.27 K, 250580 kPa | 1315.5
253.27 K, 299650 kPa | 1393.8
253.27 K, 350190 kPa | 1468.5
253.27 K, 400740 kPa | 1535.4
273.17 K, 1130 kPa | 488.3
273.17 K, 10400 kPa | 567.9
273.17 K, 25040 kPa | 660.8
273.17 K, 50150 kPa | 779.5
273.17 K, 75280 kPa | 871.7
273.17 K, 100230 kPa | 949
273.17 K, 125430 kPa | 1017.1
273.17 K, 150270 kPa | 1077.5
273.17 K, 175810 kPa | 1133.8
273.17 K, 200700 kPa | 1184.6
273.17 K, 250800 kPa | 1276.7
273.17 K, 300450 kPa | 1358.2
273.17 K, 350820 kPa | 1432.3
273.17 K, 400090 kPa | 1499.6
288.15 K, 1160 kPa | 424.2
288.15 K, 5200 kPa | 468.9
288.15 K, 10130 kPa | 513.8
288.15 K, 25190 kPa | 618
288.15 K, 50080 kPa | 741.2
288.15 K, 75440 kPa | 837.6
288.15 K, 100170 kPa | 916.1
288.15 K, 125510 kPa | 986.4
288.15 K, 150630 kPa | 1048.4
288.15 K, 175250 kPa | 1103.9
288.15 K, 200700 kPa | 1156.6
288.15 K, 250380 kPa | 1249
288.15 K, 300040 kPa | 1331.1
288.15 K, 350970 kPa | 1407.7
288.15 K, 400410 kPa | 1475.2
303.15 K, 1990 kPa | 370.7
303.15 K, 10090 kPa | 463.9
303.15 K, 25160 kPa | 576.7
303.15 K, 50920 kPa | 709.3
303.15 K, 75370 kPa | 804.5
303.15 K, 100560 kPa | 886.5
303.15 K, 125410 kPa | 956.2
303.15 K, 150900 kPa | 1020.1
303.15 K, 175340 kPa | 1075.6
303.15 K, 200830 kPa | 1129
303.15 K, 250190 kPa | 1221.9
303.15 K, 300750 kPa | 1306.5
303.15 K, 350300 kPa | 1381.1
303.15 K, 400020 kPa | 1450.2
323.18 K, 2300 kPa | 288.3
323.18 K, 10550 kPa | 404.9
323.18 K, 28790 kPa | 547
323.18 K, 50380 kPa | 664.6
323.18 K, 75340 kPa | 767.2
323.18 K, 101090 kPa | 852.8
323.18 K, 125070 kPa | 921.8
323.18 K, 150670 kPa | 987.4
323.18 K, 175680 kPa | 1045.2
323.18 K, 200750 kPa | 1098.6
323.18 K, 250620 kPa | 1193.8
323.18 K, 300400 kPa | 1278
323.18 K, 350810 kPa | 1355.4
323.18 K, 400580 kPa | 1424.9
343.19 K, 4760 kPa | 245.5
343.19 K, 8270 kPa | 311.3
343.19 K, 10440 kPa | 341.8
343.19 K, 50540 kPa | 627.2
343.19 K, 75610 kPa | 730.9
343.19 K, 100650 kPa | 818.3
343.19 K, 125170 kPa | 890.4
343.19 K, 150340 kPa | 956.2
343.19 K, 175160 kPa | 1014.7
343.19 K, 200290 kPa | 1069
343.19 K, 250220 kPa | 1165.9
343.19 K, 300620 kPa | 1252
343.19 K, 350100 kPa | 1327.9
343.19 K, 400370 kPa | 1399.8
363.15 K, 10450 kPa | 287
363.15 K, 25500 kPa | 442
363.15 K, 50520 kPa | 592.9
363.15 K, 75490 kPa | 700.6
363.15 K, 100300 kPa | 787.2
363.15 K, 125230 kPa | 861.9
363.15 K, 150340 kPa | 928.6
363.15 K, 175590 kPa | 988.8
363.15 K, 200320 kPa | 1042.8
363.15 K, 250610 kPa | 1141.2
363.15 K, 300360 kPa | 1226.7
363.15 K, 350690 kPa | 1305.3
363.15 K, 400260 kPa | 1376
383.16 K, 15690 kPa | 310.6
383.16 K, 25690 kPa | 407.4
383.16 K, 50530 kPa | 562.3
383.16 K, 75940 kPa | 673.9
383.16 K, 100500 kPa | 761.1
383.16 K, 125630 kPa | 837.2
383.16 K, 150460 kPa | 903.4
383.16 K, 175770 kPa | 964.4
383.16 K, 200740 kPa | 1019.4
383.16 K, 250260 kPa | 1116.8
383.16 K, 300690 kPa | 1204.6
383.16 K, 350280 kPa | 1282.6
383.16 K, 400510 kPa | 1354.3
403.14 K, 16670 kPa | 288.3
403.14 K, 25610 kPa | 375.7
403.14 K, 50890 kPa | 537.5
403.14 K, 75640 kPa | 647.4
403.14 K, 100060 kPa | 737.1
403.14 K, 125630 kPa | 813.6
403.14 K, 150360 kPa | 880.3
403.14 K, 175620 kPa | 941.6
403.14 K, 200670 kPa | 997.2
403.14 K, 250500 kPa | 1096
403.14 K, 300660 kPa | 1183.8
403.14 K, 350610 kPa | 1262.3
403.14 K, 400280 kPa | 1333.6
423.15 K, 19600 kPa | 293.5
423.15 K, 25100 kPa | 345.1
423.15 K, 50800 kPa | 513
423.15 K, 75400 kPa | 623.9
423.15 K, 100710 kPa | 715.4
423.15 K, 125320 kPa | 791.3
423.15 K, 150160 kPa | 858.8
423.15 K, 175410 kPa | 920.3
423.15 K, 200520 kPa | 976.3
423.15 K, 250420 kPa | 1075.9
423.15 K, 300390 kPa | 1163.6
423.15 K, 350600 kPa | 1243
423.15 K, 400920 kPa | 1315.6
448.15 K, 25130 kPa | 318.1
448.15 K, 50710 kPa | 485
448.15 K, 75240 kPa | 596.6
448.15 K, 100750 kPa | 689.4
448.15 K, 125710 kPa | 766.5
448.15 K, 150770 kPa | 834.5
448.15 K, 175320 kPa | 894.5
448.15 K, 200820 kPa | 951.6
448.15 K, 250910 kPa | 1051.8
448.15 K, 300780 kPa | 1139.3
448.15 K, 350710 kPa | 1218.3
448.15 K, 400820 kPa | 1291.1
473.14 K, 25160 kPa | 298.7
473.14 K, 50460 kPa | 462.3
473.14 K, 75570 kPa | 576.7
473.14 K, 100220 kPa | 666.6
473.14 K, 125570 kPa | 745.3
473.14 K, 150690 kPa | 814
473.14 K, 175720 kPa | 875.3
473.14 K, 200800 kPa | 931.7
473.14 K, 250600 kPa | 1031.5
473.14 K, 300640 kPa | 1119.7
473.14 K, 350560 kPa | 1199
473.14 K, 400750 kPa | 1272
